In test [1] the test system is Human immunodeficiency virus 1. The test can be described thus: Effective concentration required for 50% protection of MT-4 cells against the cytopathic effect of HIV-1. The class given is functional, organism-based. Particulars: Human immunodeficiency virus 1, MT4.
The subject of test [2] is MT4. The experiment in a line: Ratio of the EC50 against HIV-1 infected MT-4 cells and CC50 against mock infected MT-4 cells. It counts as functional.
A short description of test [3]: Concentration required to reduce viability of mock-infected MT-4 cells. It counts as functional. Particulars: Homo sapiens, MT4.
In test [4] the test system is MT4. The experiment in a line: Concentration required to inhibit replication of HIV-2 LAV-2rod strain in MT-4 cells. The class given is functional, cell-based. The settings on record: Homo sapiens.
Test [5] relates to MT4. The test can be described thus: Concentration to required to reduce viability of Mock infected MT-4 cells. It counts as functional. Particulars: Homo sapiens.
Test [6] in a line: Concentration required to reduce viability of Mock infected PBL (peripheral blood lymphocytes) cells. The class given is functional. Particulars: Homo sapiens.
The nature of test [7]: Concentration required to inhibit replication of HIV-1 HTLV-IIIB strain in PBL (peripheral blood lymphocytes) cells. It counts as functional, cell-based. The settings on record: Homo sapiens.
Test [8] relates to MT4. The experiment in a line: Cytotoxicity to required to reduce viability of Mock infected MT-4 cells of LAV-2rod strain against HIV-2 replication. The class given is functional. The settings on record: Homo sapiens.

For the molecule `CC(C)c1c(Sc2ccccc2)n(COCc2ccccc2)c(=S)[nH]c1=O`, a half-maximal response in test [1] (EC50) required 6.8 nM. Moreover, in the test with MT4 [2], the Selectivity index is given as more than 2940. The CC50 in test [3] is more than 20 µM.

The molecule `CCc1c(Sc2ccccc2)n(COCC2CCCCC2)c(=S)[nH]c1=O` yielded an EC50 in test [1] of 350 nM. Moreover, in the test on MT4 [2], the Selectivity index is more than 286. For the same molecule, the CC50 in test [3] is more than 100 µM.

Regarding `CCOCn1c(Sc2ccccc2)c(CC)c(=O)[nH]c1=O`, the EC50 was 19 nM in test [1], more than 146 µM in the test with MT4 [4] and 11 nM in test [7]. The cytotoxic concentration (CC50) in the test with MT4 [5] was found to be 146 µM; in test [6], 93 µM. Also, the Selectivity index in the test on MT4 [2] was 8500.

As for `Cc1c(Sc2ccccc2)n(COCC[Si](C)(C)C)c(=O)[nH]c1=O`, the EC50 in test [1] is more than 32000 nM. Besides, the Selectivity index with MT4 [2] was less than 1. The midpoint of cytotoxicity in test [3], the CC50, lay at 32 µM.

In test [1], `CCc1c(Sc2ccccc2)n(COCc2ccc(Cl)cc2)c(=S)[nH]c1=O` returned an EC50 of 12 nM. In addition, the Selectivity index in the test on MT4 [2] was more than 1670. In test [3], this molecule displayed a half-maximal cytotoxic concentration (CC50) of more than 20 µM.

In test [1], `CC(C)c1c(Sc2ccccc2)n(COCc2ccccc2)c(=O)[nH]c1=O` returned an EC50 of 2.7 nM. Besides, the Selectivity index with MT4 [2] is recorded as more than 7410. Also, the CC50 in test [3] is more than 20 µM.

As to `CCc1c(Sc2ccccc2)n(COCc2ccccc2)c(=O)[nH]c1=O`, the EC50 is 5.9 nM in test [1], more than 30 µM in the test on MT4 [4] and 1.5 nM in test [7]. The results for the CC50 (in the test with MT4 [5]; in test [6]) were 30 µM and 43 µM, respectively. In addition, the Selectivity index in the test with MT4 [2] turned out to be 5800.

In the case of `Cc1c(O)nc(O)nc1Sc1ccccc1`, the EC50 in test [1] is more than 250000 nM. The Selectivity index with MT4 [2] is reported as less than 1. The CC50 in test [3] stood at 250 µM.

For `CCn1c(Sc2ccccc2)c(C)c(=O)[nH]c1=O`, the EC50 in test [1] turned out to be 2200 nM. Moreover, in the test on MT4 [2], the Selectivity index is 43. This molecule also came in with a CC50 in test [3] of 94 µM.

On to `CCCCn1c(Sc2ccccc2)c(C)c(=O)[nH]c1=O`, for which, in test [1], the EC50 stood at 1200 nM. Further, the Selectivity index with MT4 [2] amounted to 74. In test [3], it took 89 µM to reach half-maximal cytotoxicity (CC50).

For the molecule `CCOCn1c(Sc2ccccc2)c(C2CC2)c(=O)[nH]c1=O`, a half-maximal effect in test [1] (EC50) was put at 100 nM. Also, the Selectivity index with MT4 [2] turned out to be 2240. Half-maximal cytotoxicity in test [3] (CC50) was put at 224 µM.

`CCOCn1c(Sc2cc(C)cc(C)c2)c(CC)c(=O)[nH]c1=S`: the EC50 was 4.4 nM in test [1], more than 100 µM with MT4 [4] and 2.2 nM in test [7]. Besides, the CC50 was more than 100 µM in the test with MT4 [5], 33 µM in test [6] and more than 100 µM in test [3]. In the test with MT4 [2], the Selectivity index is reported as more than 22700.

`Cc1c(Sc2ccccc2)n(COCc2ccccc2)c(=O)[nH]c1=O` yielded an EC50 in test [1] of 88 nM. Also, in the test on MT4 [2], the Selectivity index was found to be 1080.

Molecule `CCOCn1c(Sc2ccccc2)c(C(C)C)c(=O)[nH]c1=O` showed an EC50 in test [1] of 12 nM. For the same molecule, the Selectivity index with MT4 [2] is 8830. Also, the CC50 in test [3] is 106 µM.

In the case of `CCc1c(Sc2ccccc2)n(CC(C)C)c(=S)[nH]c1=O`, the 50% effective concentration (EC50) in test [1] was determined as 220 nM. Besides, the Selectivity index with MT4 [2] is given as more than 455. This molecule also registered a CC50 in test [3] of more than 100 µM.

For `CCc1c(Sc2ccccc2)n(COC2CCCCC2)c(=O)[nH]c1=O`, a half-maximal response in test [1] (EC50) required 4000 nM. The Selectivity index in the test with MT4 [2] was more than 25. This molecule gave a CC50 in test [3] of more than 100 µM.

Regarding `CCc1c(Sc2cc(C)cc(C)c2)n(COCc2ccccc2)c(=S)[nH]c1=O`, in test [1], the midpoint of the response, the EC50, lay at 6.9 nM. Moreover, in the test on MT4 [2], the Selectivity index is more than 2900. In test [3], this molecule had a CC50 of more than 20 µM.

With `CCc1c(Sc2ccccc2)n(COCc2ccccc2)c(=S)[nH]c1=O`, the EC50 in test [1] is 7.8 nM; in the test on MT4 [4], more than 100 µM; in test [7], 3.7 nM. Further, the values for the CC50 (with MT4 [5]; in test [6]; in test [3]) were more than 100 µM, 28 µM and more than 100 µM, respectively. For the same molecule, the Selectivity index in the test with MT4 [2] is more than 12800.

As for `CCc1c(Sc2cc(C)cc(C)c2)n(COCc2ccccc2)c(=O)[nH]c1=O`, the EC50 in test [1] came to 3.2 nM. For the same molecule, the Selectivity index in the test on MT4 [2] is more than 6250. In test [3], this molecule displayed a CC50 of more than 20 µM.

Molecule `Cc1c(Sc2ccccc2)n(COCCOCc2ccccc2)c(=O)[nH]c1=O` displayed an EC50 in test [1] of more than 20000 nM. The Selectivity index in the test on MT4 [2] turned out to be 2.3.

For `CCc1c(Sc2ccccc2)n(COCc2ccc(C)cc2)c(=S)[nH]c1=O`, the EC50 in test [1] is 78 nM. Besides, the Selectivity index with MT4 [2] was more than 256. This molecule showed a CC50 in test [3] of more than 20 µM.

`CCc1c(Sc2ccccc2)n(COC2CCCCC2)c(=S)[nH]c1=O` registered an EC50 in test [1] of 1600 nM. In the test with MT4 [2], the Selectivity index came out at 139. Also, in test [3], the CC50 is 223 µM.

For the molecule `CCOCn1c(Sc2cc(Cl)cc(Cl)c2)c(CC)c(=O)[nH]c1=O`, the EC50 in test [1] was 7.4 nM. Moreover, in the test with MT4 [2], the Selectivity index was 6080. The molecule also yielded a CC50 in test [3] of 45 µM.

Molecule `CCCCOCn1c(Sc2ccccc2)c(C)c(=O)[nH]c1=O` returned an EC50 in test [1] of 4700 nM. The Selectivity index in the test with MT4 [2] is 18. Moreover, half-maximal cytotoxicity in test [3] (CC50) was put at 83 µM.

Take `COCCOCn1c(Sc2ccccc2)c(C)c(=O)[nH]c1=O`: the EC50 in test [1] worked out at 8700 nM. The Selectivity index with MT4 [2] was 34.

In test [1], `CCCCCOCCOCn1c(Sc2ccccc2)c(C)c(=O)[nH]c1=O` gave an EC50 of more than 55000 nM. Further, in the test with MT4 [2], the Selectivity index is less than 1. In test [3], the CC50 stood at 55 µM.

The molecule `CCOCn1c(Sc2ccccc2)c(C2CC2)c(=O)[nH]c1=S` had an EC50 in test [1] of 95 nM. For the same molecule, the Selectivity index in the test with MT4 [2] is 484. The same molecule came in with a CC50 in test [3] of 46 µM.

Regarding `Cc1cn([C@H]2C[C@H](N=[N+]=[N-])[C@@H](CO)O2)c(=O)[nH]c1=O` [ZIDOVUDINE], the figures for the EC50 (with MT4 [4]; in test [7]) were 0.0028 µM and 1.4 nM, respectively. The CC50 was 7.8 µM in the test with MT4 [5] and 26 µM in test [6]. The Selectivity index in the test with MT4 [2] is reported as 2600.

`CCOCn1c(Sc2cc(C)cc(C)c2)c(CC)c(=O)[nH]c1=O`: the EC50 was 5.4 nM in test [1], more than 100 µM with MT4 [4] and 1.8 nM in test [7]. For the same molecule, the values for the CC50 (with MT4 [8]; in test [6]; in test [3]) were more than 100 µM, 56 µM and more than 100 µM, respectively. Also, in the test on MT4 [2], the Selectivity index was more than 18500.

Take `CCOCn1c(Sc2ccccc2)c(C)c(=O)[nH]c1=O`: it took 330 nM to reach a half-maximal effect in test [1] (EC50). For the same molecule, the Selectivity index in the test on MT4 [2] worked out at 700.

Molecule `CCc1c(Sc2ccccc2)n(COC(C)C)c(=O)[nH]c1=O` registered a concentration giving a half-maximal response (EC50) in test [1] of 340 nM. Also, the Selectivity index in the test on MT4 [2] was 421. Further, in test [3], half-maximal cytotoxicity (CC50) was put at 143 µM.

Take `CCc1c(Sc2ccccc2)n(COCCc2ccccc2)c(=O)[nH]c1=O`: the EC50 in test [1] was 96 nM. Further, the Selectivity index with MT4 [2] is recorded as 396. This molecule returned a CC50 in test [3] of 38 µM.

`CCOCn1c(Sc2ccccc2)c(C(C)C)c(=O)[nH]c1=S` displayed an EC50 in test [1] of 14 nM. For the same molecule, the Selectivity index with MT4 [2] is recorded as more than 7140. In test [3], the CC50 was more than 100 µM.

Consider `CCOCn1c(Sc2cc(Cl)cc(Cl)c2)c(CC)c(=O)[nH]c1=S`, for which, in test [1], the response was half-maximal at 13 nM (EC50). Besides, the Selectivity index in the test with MT4 [2] was 3460. In test [3], this molecule had a CC50 of 45 µM.

`CCCOCn1c(Sc2ccccc2)c(C)c(=O)[nH]c1=O` yielded an EC50 in test [1] of 3600 nM. Moreover, in the test on MT4 [2], the Selectivity index was 41. Further, in test [3], the CC50 was found to be 147 µM.

Take `CCc1c(Sc2ccccc2)n(COCCc2ccccc2)c(=S)[nH]c1=O`: the EC50 in test [1] came to 91 nM. In addition, the Selectivity index with MT4 [2] is more than 220. Moreover, the CC50 in test [3] is more than 20 µM.

On to `CCOCn1c(Sc2ccccc2)c(CC)c(=O)[nH]c1=S`, for which the concentration giving a half-maximal response (EC50) is 26 nM in test [1], more than 50 µM with MT4 [4] and 13 nM in test [7]. Also, the CC50 was 50 µM in the test with MT4 [5], 35 µM in test [6] and 81 µM in test [3]. The Selectivity index in the test on MT4 [2] is 3120.

In test [1], `Cc1c(Sc2ccccc2)n(C)c(=O)[nH]c1=O` had an EC50 of more than 150000 nM. Moreover, the Selectivity index in the test with MT4 [2] is reported as less than 1. Besides, in test [3], half-maximal cytotoxicity (CC50) was put at 150 µM.

`COCn1c(Sc2ccccc2)c(C)c(=O)[nH]c1=O`: the response in test [1] was half-maximal at 2100 nM (EC50). Also, the Selectivity index with MT4 [2] is listed as 116. The same molecule returned a CC50 in test [3] of 244 µM.

For `CCc1c(Sc2ccccc2)n(COCC2CCCCC2)c(=O)[nH]c1=O`, it took 450 nM to reach a half-maximal effect in test [1] (EC50). In the test with MT4 [2], the Selectivity index worked out at 38. The CC50 in test [3] was found to be 17 µM.
